Patent US11337449B2, “Compositions and their use” (NESTEC S.A., priority 2015, dated 2022)

Key:
[1] = test system: brain myelination (myelin water fraction); test: Cross-sectional correlation of infant formula nutrient content with brain myelination (myelin water fraction, mcDESPOT MRI); assay type: in vivo, human; settings: children up to 5 years fed infant formulas
Procedure: MRI (Magnetic Resonance Imaging): MRI brain scans of infants and children between 0 and 5 years were acquired using a white matter imaging technique. This technique provides a quantitative measure, the Myelin Water Fraction (MWF), which is a surrogate marker of myelin content in the brain. When mapped as a function of time across early childhood, myelination trajectories can be generated.
Infant formula composition: six infant formulas fed to infants participating in a study were analyzed for their composition/level of myelin-relevant nutrients.
Each infant was scanned using the mcDESPOT (multicomponent Driven Equilibrium Single Pulse Observation of T1 and T2) white matter imaging technique Deoni et al. (Magn. Reson. Med. 2008, 60:1372-1387), which provides a quantitative measure of the myelin water fraction (MWF)—a measure of myelin content—at each point throughout the brain. All infants were scanned during natural (i.e. non-sedated) sleep using acoustically-muffled mcDESPOT imaging protocols. Total imaging times ranged from 19 minutes for the youngest toddlers to 24 minutes for the older 4 year-old children.
Following image alignment, non-brain signal removal, and correction for main and transmit magnetic field (B0 and B1) inhomogeneities, a three-pool signal model (comprising the myelin-associated water; intra-extra axonal water; and a non-exchanging free-water pool) was fit to the mcDESPOT data to derive voxel-wise MWF maps.
Each child's map was then non-linearly aligned to a study specific template. White matter masks, corresponding to 5 bilateral regions (frontal, temporal, occipital, parietal, and cerebellar WM) as well as the body, genu, and splenium of the corpus callosum were created from common databases, registered to the common template, and superimposed onto each child's MWF map. Mean values for each region were then determined for each child and used for subsequent developmental analysis and trajectory modeling.
From the cohort described above, children up to 5 years of age that were fed different infant formulas during infancy were included in a large correlation analysis to examine the relationship between formula nutrient composition and brain myelination. The 6 most frequently used formulas in that cohort were analyzed for their nutritional composition. A single general linear model (GLM) was constructed that modeled all quantified nutrients and child age.
Spearman rank correlations were then calculated between the nutrient content and myelin content value (adjusted for child age) at each image voxel, or point within the brain. Significance was defined as p<0.05 corrected for type 1 error using a cluster based correction approach. An association or trend was defined as p<0.15. […] To reduce the number of nutritional components in the model, we examined the inter-nutritional correlation. Using a conservative threshold of 0.9, we excluded nutritional components that were highly correlated with each other across the various formulas.

[2] = test system: neural progenitor cell (NPCs) from E14 mouse neocortex; test: Differentiation assay: quantification of neuronal and glial marker expression in monolayer NPC culture; assay type: cell-based; settings: 9 d culture; for astrocyte cell density (astrocytic): GFAP normalized to DAPI
Procedure: Generation of neural progenitor cell (NPCs) libraries: dissociation of E14 mouse neocortex E14 pup brains were harvested and placed in ice cold DPBS(1×)+10% Pen/Strep, then they were dissected using a dissecting microscope. From each pup, one brain hemisphere was placed in 2 ml of Neurobasal media/10% P/S/10× Hepes and another brain hemisphere was placed in another tube. The tissue from each tube was aseptically and manually dissociate into single cells, neurobasal complete medium was added and centrifuged at […] for 5 min. The tissue was then re-suspended in neurobasal complete media with GF and placed in a corning suspension culture dish 100 mm×20 mm (#430591). […] Plating Cells in 24 Well Plate for Monolayer Differentiation or EdU Incorporation Assays 24 well glass bottom plates (Mat Tek […]-1.0-13-F Case, glass bottom 24 well plates) were coated with poly-L-ornithin (Sigma P4957) and Fibronection (Sigma F1141) before use in the assay below. Cells were plated (10,000 cells per well) in Complete media with GF for 24 hours (500 ul per well). […] Differentiation Assay: Quantification of Neuronal, Glial and NPC Marker Expression After 24 hours, it was ensured that cells were attached to the plate, then the medium was carefully removed. […] Note: medium contains no GF. […] The cells were culture for 9 d in media plus 2% Nu Serum, the medium was changed every 2nd day. For fixation and subsequent immunohistochemical analysis the medium was removed, the cells were rinsed once with 1×PBS for 5 min, and fixed with 4% PFA in 1×PBS for 15 min at 4° C. The cells were then washed twice with 1×PBS for 5 min, left in 1×PBS, wrapped in foil and left overnight at 4C, or they were immediately primary antibody staining was carried out. PBS was removed and enough AB staining solution (1% Goat serum, 1×PBS, and 0.1% triton X) was added to cover the bottom, the block was kept at room temp for 1 hour. Primary antibody dilutions were made in appropriate amount of AB staining solution, 250 ul per well (the antibodies were only kept out on ice for a short time, mouse anti-MAP2 or TUJ1 1:500 (neuron marker), rabbit anti-GFAP (glial marker) 1:1000, chicken anti-Nestin CFP (EGFP antibody (progenitor cell marker)) 1:1000. AB staining solution was removed and a solution of primary antibodies was added to each chamber. The cells were wrapped in foil and kept overnight 4° C. The cells were then washed with 400 ul of AB staining solution for 5 min once to remove primary antibodies. Secondary antibody solutions were made (enough for 250 ul of each chamber) (Goat anti-mouse alexa 488 1:2000, anti-rabbit Cy3 (1:500), anti-chicken alexa 647 1:500, and 1:5000 Dapi). The cells were incubated at room temp for 1 hour in the dark and washed 2 time in AB staining solution for five mins. They were then kept at 4° C. or Imaged using a GE Cytell imager or LSM 710, Zeiss confocal microscope and analyze with ImageJ software (National Institutes of Health). Microtubule-Associated Protein 2 (MAP2), Neuronal Beta-Tubulin III(TuJ1), Glial Fibrillary Acidic Protein (GFAP), and Nestin CFP (EGFP Antibody). Each marker expression was measured on collected images (integrated density measure in ImageJ) and normalized to DAPI fluorescence, marking all nuclei (integrated density measure). Octanoic Acid were labeled with neuronal beta-tubulin III (TuJ1), subsequent compounds were labeled with Microtubule-associated protein 2 (MAP2).

[3] = test system: neural progenitor cell (NPCs) from E14 mouse neocortex; test: Neurosphere counts in 96-well plates; assay type: cell-based; settings: Low (Dose 1: 10 nM); cells grown 2 days
Procedure: Generation of neural progenitor cell (NPCs) libraries:
E14 pup brains were harvested and placed in ice cold DPBS(1×)+10% Pen/Strep, then they were dissected using a dissecting microscope. From each pup, one brain hemisphere was placed in 2 ml of Neurobasal media/10% P/S/10× Hepes and another brain hemisphere was placed in another tube.
The tissue from each tube was aseptically and manually dissociate into single cells, neurobasal complete medium was added and centrifuged at 130G for 5 min. The tissue was then re-suspended in neurobasal complete media with GF and placed in a corning suspension culture dish 100 mm×20 mm (#430591). Cells were passage twice using a 1:3 ratio, after what they were centrifuged (130 g 5 min), resuspended in freezing media (10% DMSO and neurobasal complete media, no GF) and frozen in liquid nitrogen (LN2).
Plating Cells in 96-Well Plates for Neurosphere Counts and Diameters Only
3-4 mLs of cells were taken out of the tilted plate and add to a 15 ml conical. Some of the remaining media was used to rinse down the plate. All remaining media was drawn up and put into a 15 ml conical tube, and Spun at 130G for 5 min. All media was removed. […]
1. […] Imaging was carried out using a GE Cytell imager or LSM 710, Zeiss confocal microscope and the diameters of neurospheres with ImageJ software (National Institutes of Health) was analysed.

[4] = test system: neural progenitor cell (NPCs) from E14 mouse neocortex; test: Monolayer culture NPC proliferation assay (EdU incorporation / DAPI); assay type: cell-based; settings: lowSM (Dose 1: 10 nM); 3 days culture
Procedure: Monolayer Culture NPC Proliferation Assay (Incorporation of EdU—S Phase Marker)
After 24 h, it was ensured that cells had attached to the plate then the medium was carefully removed. 500 μL of compound media plus GF. was added. The cells were cultured for 3 days in appropriate media.
Control and compound media was made with #2 media and contains 29 uM Choline, Low (5 uM) and medium (70 uM) choline media was made with #3 media.
EDU incorporation was measured using Click-IT® EdU Alexa Fluor® 555 Imaging Kit (Life technologies, #c10338).
At the end of day 3 EdU was added to each well at 10 μM for 30 minutes prior to fixation.
For fixation and subsequent immunohistochemical analysis, the medium was removed, the cells were rinsed once with 1×PBS for 5 min, and fixed with 4% PFA in 1×PBS for 15 min at 4° C., then the cells were washed twice with 1×PBS for 5 min, left in 1×PBS, wrapped in foil and leave overnight at 4° C., or staining was proceeded with.
PBS was removed and enough AB staining solution (1% Goat serum, 1×PBS, and 0.1% triton X) added to cover the bottom, the block was kept at room temp for 1 hour. The cells were stained for EDU. The cells were Incubated for 30 min at room temp, in the dark. The cells were washed with 1×PBS and stained with Dapi 1:5000 ul for 15 min. […]

CCCCC/C=C\C/C=C\C/C=C\C/C=C\CCCC(=O)O [AA, arachidonic acid]
association of nutrient with myelination (myelin water fraction) over time in the brain [1]: an association with myelination (myelin water fraction) was observed over time in the brain

vitamin B12
association of nutrient with myelination (myelin water fraction) over time in the brain [1]: an association with myelination (myelin water fraction) was observed over time in the brain

CCCCCCCC(=O)O [Octanoic acid, Octanoic Acid]
astrocyte cell density (astrocytic) ([2]; HighOA (Dose 3: 250 μM)): 7.9
Neuronal Cell density (Neuronal) ([2]; HighOA (Dose 3: 250 μM), TuJ1 normalized to DAPI): 1.7
astrocyte cell density (astrocytic) ([2]; lowOA (Dose 1: 10 μM)): 3.7
Neuronal Cell density (Neuronal) ([2]; lowOA (Dose 1: 10 μM), TuJ1 normalized to DAPI): 1.2
astrocyte cell density (astrocytic) ([2]; medOA (Dose 2: 50 μM)): 6.1
Neuronal Cell density (Neuronal) ([2]; medOA (Dose 2: 50 μM), TuJ1 normalized to DAPI): 1.8

[Ca+2] [calcium]
association of nutrient with myelination (myelin water fraction) over time in the brain [1]: an association with myelination (myelin water fraction) was observed over time in the brain

phosphatidylinositol
association of nutrient with myelination (myelin water fraction) over time in the brain [1]: an association with myelination (myelin water fraction) was observed over time in the brain

[P] [phosphorus]
association of nutrient with myelination (myelin water fraction) over time in the brain [1]: an association with myelination (myelin water fraction) was observed over time in the brain

iron
association of nutrient with myelination (myelin water fraction) over time in the brain [1]: an association with myelination (myelin water fraction) was observed over time in the brain

[Zn] [zinc]
association of nutrient with myelination (myelin water fraction) over time in the brain [1]: an association with myelination (myelin water fraction) was observed over time in the brain

phosphatidylcholine
association of nutrient with myelination (myelin water fraction) over time in the brain [1]: an association with myelination (myelin water fraction) was observed over time in the brain

[Mg+2] [magnesium]
association of nutrient with myelination (myelin water fraction) over time in the brain [1]: an association with myelination (myelin water fraction) was observed over time in the brain

CCCCCCCCCCCCCCCCCC(=O)O [Stearic acid, Stearic Acid]
astrocyte cell density (astrocytic) ([2]; highSA (Dose 3: 10 μM)): 0.85
Neuronal Cell density (Neuronal) ([2]; highSA (Dose 3: 10 μM), MAP2 normalized to DAPI): 0.64
astrocyte cell density (astrocytic) ([2]; lowSA (Dose 1: 100 nM)): 0.68
Neuronal Cell density (Neuronal) ([2]; lowSA (Dose 1: 100 nM), MAP2 normalized to DAPI): 0.54
astrocyte cell density (astrocytic) ([2]; medSA (Dose 2: 1 μm)): 0.81
Neuronal Cell density (Neuronal) ([2]; medSA (Dose 2: 1 μm), MAP2 normalized to DAPI): 0.66

Sphingomyelin
number of neurospheres, Average (Mean) [3]: 94
neuronal proliferation (DAPI) [4]: 280
association of nutrient with myelination (myelin water fraction) over time in the brain [1]: an association with myelination (myelin water fraction) was observed over time in the brain
